Earlier results in PubChem BioAssay AID1259409 (Chemical Carcinogenesis Research Information System (CCRIS), 2018).

Test system: rodent chemically induced tumor inhibition, incidence and multiplicity
Experiment: CCRIS tumor inhibitor studies
Settings: Carcinogen: 7,12-DIMETHYLBENZ[A]ANTHRACENE, 57-97-6, Route [Inhibitor]: ORAL, Promoter: NONE USED

For O=[Se](O)O, the “tumour outcome (control, treated, inhibition, significance)” value (Dose [Inhibitor]: 1 PPM IN DIET DAILY STARTING 1 WK PRIOR TO CARCINOGEN TREATMENT AND CONTINUING FOR DURATION OF STUDY (STUDY DURATION: 9, Species: MOUSE, Strain/Sex: BD2F1/FEMALE, Target Tissue: Type of Lesion: MAMMARY GLAND: TUMOR, Dose [Carcinogen]: 1 MG IN 0.2 ML COTTONSEED OIL 1/WK FOR 6 WK STARTING AT 8 WK OF AGE) is listed as 18/32 (56%), 8/32 (25%), 55%, not calculated, the “tumour outcome (control, treated, inhibition, significance)” value (Dose [Inhibitor]: 1.5 PPM IN 5% CORN OIL DIET DAILY STARTING 29 D BEFORE CARCINOGEN TREATMENT AND CONTINUING FOR DURATION OF STUDY (STUDY, Species: RAT, Strain/Sex: SPRAGUE-DAWLEY/FEMALE, Target Tissue: Type of Lesion: MAMMARY GLAND: ADENOCARCINOMA, Dose [Carcinogen]: 5 MG IN CORN OIL ONCE AT 50 D OF AGE) is listed as 12/30 (40%), 9/31 (29%), 28%, not significant and the “tumour outcome (control, treated, inhibition, significance)” value (Dose [Inhibitor]: 1.5 PPM IN 25% CORN OIL DIET DAILY STARTING 29 D BEFORE CARCINOGEN TREATMENT AND CONTINUING FOR DURATION OF STUDY (STUDY, Species: RAT, Strain/Sex: SPRAGUE-DAWLEY/FEMALE, Target Tissue: Type of Lesion: MAMMARY GLAND: ADENOCARCINOMA, Dose [Carcinogen]: 5 MG IN CORN OIL ONCE AT 50 D OF AGE) is listed as 21/30 (70%), 16/29 (55%), 21%, not significant. The “tumour outcome (control, treated, inhibition, significance)” value (Dose [Inhibitor]: 2 PPM IN DIET DAILY STARTING 1 WK PRIOR TO CARCINOGEN TREATMENT AND CONTINUING FOR DURATION OF STUDY (STUDY DURATION: 9, Species: MOUSE, Strain/Sex: BALB/FEMALE, Target Tissue: Type of Lesion: MAMMARY GLAND: TUMOR, Dose [Carcinogen]: 1 MG IN 0.2 ML COTTONSEED OIL 1/WK FOR 6 WK STARTING AT 8 WK OF AGE) was 11/28 (39%), 2/28 (7%), 82%, not calculated, the “tumour outcome (control, treated, inhibition, significance)” value (Dose [Inhibitor]: 2 PPM IN DIET DAILY STARTING 1 WK PRIOR TO CARCINOGEN TREATMENT AND CONTINUING FOR DURATION OF STUDY (STUDY DURATION: 9, Species: MOUSE, Strain/Sex: BD2F1/FEMALE, Target Tissue: Type of Lesion: MAMMARY GLAND: TUMOR, Dose [Carcinogen]: 1 MG IN 0.2 ML COTTONSEED OIL 1/WK FOR 6 WK STARTING AT 8 WK OF AGE) was 18/32 (56%), 5/32 (16%), 71%, not calculated and the “tumour outcome (control, treated, inhibition, significance)” value (Dose [Inhibitor]: 2.5 MG/KG DIET DAILY STARTING 2 WK BEFORE CARCINOGEN TREATMENT AND CONTINUING FOR DURATION OF STUDY (STUDY DURATION: 26, Species: RAT, Strain/Sex: SPRAGUE-DAWLEY/FEMALE, Target Tissue: Type of Lesion: MAMMARY GLAND: ADENOCARCINOMA, Dose [Carcinogen]: 10 MG ONCE AT 50 D OF AGE) was 23/25 (92%), 18/25(72%), 22%, not significant. The “tumour outcome (control, treated, inhibition, significance)” value (Dose [Inhibitor]: 2.5 MG/KG DIET DAILY STARTING 2 WK BEFORE CARCINOGEN TREATMENT AND CONTINUING FOR DURATION OF STUDY (STUDY DURATION: 27, Species: RAT, Strain/Sex: SPRAGUE-DAWLEY/FEMALE, Target Tissue: Type of Lesion: MAMMARY GLAND: ADENOCARCINOMA, Dose [Carcinogen]: 10 MG ONCE AT 50 D OF AGE) was 28/30 (93%), 23/30(77%), 17%, not significant, the “tumour outcome (control, treated, inhibition, significance)” value (Dose [Inhibitor]: 2.5 PPM IN 5% CORN OIL DIET DAILY STARTING 29 D BEFORE CARCINOGEN TREATMENT AND CONTINUING FOR DURATION OF STUDY (STUDY, Species: RAT, Strain/Sex: SPRAGUE-DAWLEY/FEMALE, Target Tissue: Type of Lesion: MAMMARY GLAND: ADENOCARCINOMA, Dose [Carcinogen]: 5 MG IN CORN OIL ONCE AT 50 D OF AGE) was 12/30 (40%), 7/29 (24%), 40%, not significant and the “tumour outcome (control, treated, inhibition, significance)” value (Dose [Inhibitor]: 2.5 PPM IN 5% CORN OIL DIET DAILY STARTING 29 D BEFORE CARCINOGEN TREATMENT AND CONTINUING FOR DURATION OF STUDY (STUDY, Species: RAT, Strain/Sex: SPRAGUE-DAWLEY/FEMALE, Target Tissue: Type of Lesion: MAMMARY GLAND: ADENOCARCINOMA, Dose [Carcinogen]: 10 MG IN CORN OIL ONCE AT 50 D OF AGE) was 21/30 (70%), 13/29 (45%), 36%, p<0.05. For the same compound, the “tumour outcome (control, treated, inhibition, significance)” value (Dose [Inhibitor]: 2.5 PPM IN 5% CORN OIL DIET DAILY STARTING AT WEANING AND CONTINUING FOR DURATION OF STUDY (STUDY DURATION: 25 WK), Species: RAT, Strain/Sex: SPRAGUE-DAWLEY/FEMALE, Target Tissue: Type of Lesion: MAMMARY GLAND: ADENOCARCINOMA, Dose [Carcinogen]: 5 MG ONCE AT AGE 50 D) was 40%, 24%, 40%, not calculated, the “tumour outcome (control, treated, inhibition, significance)” value (Dose [Inhibitor]: 2.5 PPM IN 25% CORN OIL DIET DAILY STARTING 29 D BEFORE CARCINOGEN TREATMENT ANDCONTINUING FOR DURATION OF STUDY (STUDY, Species: RAT, Strain/Sex: SPRAGUE-DAWLEY/FEMALE, Target Tissue: Type of Lesion: MAMMARY GLAND: ADENOCARCINOMA, Dose [Carcinogen]: 5 MG IN CORN OIL ONCE AT 50 D OF AGE) was 21/30 (70%), 10/30 (33%), 53%, p<0.01 and the “tumour outcome (control, treated, inhibition, significance)” value (Dose [Inhibitor]: 2.5 PPM IN 25% CORN OIL DIET DAILY STARTING AT WEANING AND CONTINUING FOR DURATION OF STUDY (STUDY DURATION: 25 WK), Species: RAT, Strain/Sex: SPRAGUE-DAWLEY/FEMALE, Target Tissue: Type of Lesion: MAMMARY GLAND: ADENOCARCINOMA, Dose [Carcinogen]: 5 MG ONCE AT AGE 50 D) was 70%, 33%, 53%, not calculated. The “tumour outcome (control, treated, inhibition, significance)” value (Dose [Inhibitor]: 2.5 PPM IN HIGH-SATURATED FAT DIET CONTAINING 1% CORN OIL AND 24% HYDROGENATED COCONUT OIL DAILY STARTING AT WEANING AND, Species: RAT, Strain/Sex: SPRAGUE-DAWLEY/FEMALE, Target Tissue: Type of Lesion: MAMMARY GLAND: TUMOR, Dose [Carcinogen]: 5 MG ONCE AT AGE 50 D) was 7/25 (28%), 5/25 (20%), 29%, not significant, the “tumour outcome (control, treated, inhibition, significance)” value (Dose [Inhibitor]: 2.5 PPM IN HIGH-SATURATED FAT DIET CONTAINING 1% CORN OIL AND 24% HYDROGENATED COCONUT OIL DAILY STARTING AT WEANING AND, Species: RAT, Strain/Sex: SPRAGUE-DAWLEY/FEMALE, Target Tissue: Type of Lesion: MAMMARY GLAND: TUMOR, Dose [Carcinogen]: 10 MG ONCE AT AGE 50 D) was 16/25 (64%), 8/24 (33%), 48%, p<0.05 and the “tumour outcome (control, treated, inhibition, significance)” value (Dose [Inhibitor]: 4 MG/KG DIET DAILY FOR 28 WK STARTING 2 WK BEFORE START OF CARCINOGEN TREATMENT AND CONTINUING FOR DURATION OF STUDY (ST, Species: RAT, Strain/Sex: SPRAGUE-DAWLEY/FEMALE, Target Tissue: Type of Lesion: MAMMARY GLAND: TUMOR, Dose [Carcinogen]: 5 MG IN CORN OIL 1/WK FOR 3 WK) was 90%, 53%, 41%, p<0.01.
